Key:
Experiment in all cases: Caliper, Mobility shift assay off-chip
PASK (human) = PASK (human) (UniProt Q96RG2)
MARK2 (human) = MARK2 (human) (UniProt Q7KZI7)
PRKD1 (human) = PRKD1 (human) (UniProt Q15139)
LYN (human) = LYN (human) (UniProt P07948)
MAPK13 (human) = MAPK13 (human) (UniProt O15264)
MAPK12 (human) = MAPK12 (human) (UniProt P53778)
FGFR1 (human) = FGFR1 (human) (UniProt P11362)
[1] = tested on: EGFR (human), P00533 [T790M/L858R]
CSNK1G3 (human) = CSNK1G3 (human) (UniProt Q9Y6M4)
GSK3B (human) = GSK3B (human) (UniProt P49841)
SGK2 (human) = SGK2 (human) (UniProt Q9HBY8)
SGK2 (human), sequence (Q9HBY8 whole entry, looked up): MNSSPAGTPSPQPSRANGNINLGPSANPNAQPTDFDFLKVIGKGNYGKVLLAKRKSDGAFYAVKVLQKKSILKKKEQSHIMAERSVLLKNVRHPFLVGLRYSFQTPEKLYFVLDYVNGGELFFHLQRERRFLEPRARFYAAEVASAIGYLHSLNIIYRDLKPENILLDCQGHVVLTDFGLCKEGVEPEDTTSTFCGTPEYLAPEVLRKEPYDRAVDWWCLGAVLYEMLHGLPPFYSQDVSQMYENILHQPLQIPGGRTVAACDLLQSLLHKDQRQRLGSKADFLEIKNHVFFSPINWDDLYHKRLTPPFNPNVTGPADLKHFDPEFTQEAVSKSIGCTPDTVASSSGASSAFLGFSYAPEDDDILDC

DYRK1A (human) = DYRK1A (human) (UniProt Q13627)
PRKCD (human) = PRKCD (human) (UniProt Q05655)
PRKCD (human), sequence (Q05655 whole entry, looked up): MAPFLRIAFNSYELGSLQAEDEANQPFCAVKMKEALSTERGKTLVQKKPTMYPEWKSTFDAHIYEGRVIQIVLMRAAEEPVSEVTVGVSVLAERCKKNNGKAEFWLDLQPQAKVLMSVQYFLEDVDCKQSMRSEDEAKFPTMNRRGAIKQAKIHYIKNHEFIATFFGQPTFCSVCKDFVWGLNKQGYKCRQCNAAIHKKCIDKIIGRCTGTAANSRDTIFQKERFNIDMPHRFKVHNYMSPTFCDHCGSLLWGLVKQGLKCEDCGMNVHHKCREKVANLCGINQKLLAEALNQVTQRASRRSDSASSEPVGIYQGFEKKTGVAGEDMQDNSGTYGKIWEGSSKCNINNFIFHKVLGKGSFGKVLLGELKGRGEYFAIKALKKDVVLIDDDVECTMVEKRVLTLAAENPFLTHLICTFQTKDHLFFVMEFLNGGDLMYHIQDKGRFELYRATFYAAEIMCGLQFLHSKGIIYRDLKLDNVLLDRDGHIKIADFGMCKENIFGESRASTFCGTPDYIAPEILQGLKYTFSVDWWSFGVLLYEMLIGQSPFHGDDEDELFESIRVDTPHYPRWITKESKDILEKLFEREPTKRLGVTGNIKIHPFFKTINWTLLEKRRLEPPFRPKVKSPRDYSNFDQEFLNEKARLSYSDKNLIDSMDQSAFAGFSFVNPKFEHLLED

[2] = tested on: FLT3 (human), P36888 [D835Y]
ABL2 (human) = ABL2 (human) (UniProt P42684)
PRKCG (human) = PRKCG (human) (UniProt P05129)
TSSK2 (human) = TSSK2 (human) (UniProt Q96PF2)
PRKCA (human) = PRKCA (human) (UniProt P17252)
FGFR3 (human) = FGFR3 (human) (UniProt P22607)
ROCK1 (human) = ROCK1 (human) (UniProt Q13464)
IGF1R (human) = IGF1R (human) (UniProt P08069)
CDK5 CDK5R1 p25 (human) = CDK5 CDK5R1 p25 (human) (UniProt Q15078+Q00535)
CDK5 CDK5R1 p25 (human), sequence (Q00535 whole entry, looked up): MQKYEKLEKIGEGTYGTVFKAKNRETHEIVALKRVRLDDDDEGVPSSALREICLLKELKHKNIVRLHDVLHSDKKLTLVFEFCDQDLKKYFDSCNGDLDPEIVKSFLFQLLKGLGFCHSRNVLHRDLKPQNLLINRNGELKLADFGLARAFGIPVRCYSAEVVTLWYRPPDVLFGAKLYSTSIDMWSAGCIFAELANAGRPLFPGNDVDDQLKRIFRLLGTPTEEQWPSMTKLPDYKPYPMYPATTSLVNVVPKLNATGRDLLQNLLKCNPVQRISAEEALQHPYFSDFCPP
CDK5 CDK5R1 p25 (human), sequence (Q15078 whole entry, looked up): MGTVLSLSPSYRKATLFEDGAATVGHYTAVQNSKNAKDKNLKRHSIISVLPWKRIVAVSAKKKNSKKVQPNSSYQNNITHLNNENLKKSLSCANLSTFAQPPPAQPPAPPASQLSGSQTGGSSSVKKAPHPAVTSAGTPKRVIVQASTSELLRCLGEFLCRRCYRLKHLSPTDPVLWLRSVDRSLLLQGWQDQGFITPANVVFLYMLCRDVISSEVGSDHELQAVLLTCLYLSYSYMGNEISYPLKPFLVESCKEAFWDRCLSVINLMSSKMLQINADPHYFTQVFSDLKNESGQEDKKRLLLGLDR

MAPKAPK3 (human) = MAPKAPK3 (human) (UniProt Q16644)
TXK (human) = TXK (human) (UniProt P42681)
LCK (human) = LCK (human) (UniProt P06239)
LCK (human), sequence (P06239 whole entry, looked up): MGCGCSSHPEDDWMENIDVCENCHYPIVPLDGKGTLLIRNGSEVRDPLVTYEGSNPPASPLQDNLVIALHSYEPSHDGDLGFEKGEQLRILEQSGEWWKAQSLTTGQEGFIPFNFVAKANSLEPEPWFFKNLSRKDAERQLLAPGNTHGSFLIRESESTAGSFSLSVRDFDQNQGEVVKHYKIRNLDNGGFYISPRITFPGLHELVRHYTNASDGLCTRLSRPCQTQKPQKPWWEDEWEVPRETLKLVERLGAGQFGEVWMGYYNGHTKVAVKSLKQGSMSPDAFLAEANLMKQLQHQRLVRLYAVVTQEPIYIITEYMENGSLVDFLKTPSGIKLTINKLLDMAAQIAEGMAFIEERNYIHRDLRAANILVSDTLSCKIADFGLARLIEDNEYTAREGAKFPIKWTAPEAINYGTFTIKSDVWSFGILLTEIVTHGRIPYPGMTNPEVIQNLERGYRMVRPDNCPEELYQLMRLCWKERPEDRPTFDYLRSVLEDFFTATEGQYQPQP

[3] = tested on: FGFR2 (human), P21802 [N549H]
FGFR2 (human), P21802 [N549H], sequence (P21802 whole entry N549H, looked up): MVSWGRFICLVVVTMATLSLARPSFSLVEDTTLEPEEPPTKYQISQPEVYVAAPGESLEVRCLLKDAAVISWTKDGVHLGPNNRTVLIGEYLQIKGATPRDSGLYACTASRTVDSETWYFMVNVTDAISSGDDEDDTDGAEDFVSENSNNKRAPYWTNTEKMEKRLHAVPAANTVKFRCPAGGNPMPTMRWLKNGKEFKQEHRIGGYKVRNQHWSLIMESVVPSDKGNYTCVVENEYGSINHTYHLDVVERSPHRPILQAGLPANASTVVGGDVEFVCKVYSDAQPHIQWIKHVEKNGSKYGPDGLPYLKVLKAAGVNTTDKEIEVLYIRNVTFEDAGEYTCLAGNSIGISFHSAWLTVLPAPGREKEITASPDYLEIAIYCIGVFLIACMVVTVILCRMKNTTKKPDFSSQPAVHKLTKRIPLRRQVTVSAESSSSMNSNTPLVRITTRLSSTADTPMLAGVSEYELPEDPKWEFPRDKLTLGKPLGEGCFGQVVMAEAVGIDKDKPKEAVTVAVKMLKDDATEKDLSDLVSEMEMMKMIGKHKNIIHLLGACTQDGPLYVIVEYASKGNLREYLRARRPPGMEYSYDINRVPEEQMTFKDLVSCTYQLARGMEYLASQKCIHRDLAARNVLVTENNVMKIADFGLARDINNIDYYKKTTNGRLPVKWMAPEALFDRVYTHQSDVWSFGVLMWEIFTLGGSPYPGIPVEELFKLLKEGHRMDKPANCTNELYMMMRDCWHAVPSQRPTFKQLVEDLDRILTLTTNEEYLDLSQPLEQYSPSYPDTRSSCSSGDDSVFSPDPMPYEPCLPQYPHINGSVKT

[4] = tested on: KIT (human), P10721 [T670I]
KIT (human), P10721 [T670I], sequence (P10721 whole entry T670I, looked up): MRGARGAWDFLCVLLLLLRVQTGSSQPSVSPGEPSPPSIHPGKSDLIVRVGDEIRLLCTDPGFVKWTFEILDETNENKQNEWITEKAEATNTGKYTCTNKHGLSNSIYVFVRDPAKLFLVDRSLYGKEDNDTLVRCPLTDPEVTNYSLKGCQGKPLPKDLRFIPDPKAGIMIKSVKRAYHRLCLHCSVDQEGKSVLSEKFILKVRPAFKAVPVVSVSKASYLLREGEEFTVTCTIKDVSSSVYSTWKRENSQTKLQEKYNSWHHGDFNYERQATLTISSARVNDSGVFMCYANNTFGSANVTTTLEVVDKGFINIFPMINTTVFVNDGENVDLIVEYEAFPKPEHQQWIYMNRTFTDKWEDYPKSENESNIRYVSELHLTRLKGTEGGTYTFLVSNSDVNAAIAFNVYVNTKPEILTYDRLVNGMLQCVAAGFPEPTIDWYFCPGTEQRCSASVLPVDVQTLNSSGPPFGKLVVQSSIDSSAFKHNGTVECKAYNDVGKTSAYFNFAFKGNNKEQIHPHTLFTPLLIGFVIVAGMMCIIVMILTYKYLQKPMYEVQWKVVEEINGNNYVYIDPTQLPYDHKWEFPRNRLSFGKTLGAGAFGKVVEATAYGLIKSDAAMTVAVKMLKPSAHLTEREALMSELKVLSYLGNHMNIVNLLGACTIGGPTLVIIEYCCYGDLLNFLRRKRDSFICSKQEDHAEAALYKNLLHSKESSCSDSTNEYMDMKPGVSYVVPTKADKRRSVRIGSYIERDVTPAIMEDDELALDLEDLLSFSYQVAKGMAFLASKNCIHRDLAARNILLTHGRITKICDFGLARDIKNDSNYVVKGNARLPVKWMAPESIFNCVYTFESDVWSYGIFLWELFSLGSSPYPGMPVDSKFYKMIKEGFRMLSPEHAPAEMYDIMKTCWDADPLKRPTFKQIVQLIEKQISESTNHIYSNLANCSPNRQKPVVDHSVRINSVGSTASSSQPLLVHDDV

CLK2 (human) = CLK2 (human) (UniProt P49760)
TSSK1B (human) = TSSK1B (human) (UniProt Q9BXA7)
IKBKB (human) = IKBKB (human) (UniProt O14920)
PRKD3 (human) = PRKD3 (human) (UniProt O94806)
PAK2 (human) = PAK2 (human) (UniProt Q13177)
CDK2 (human) = CDK2 (human) (UniProt P24941)
PHKG2 (human) = PHKG2 (human) (UniProt P15735)

MAPK13 (human), sequence (O15264 whole entry, looked up): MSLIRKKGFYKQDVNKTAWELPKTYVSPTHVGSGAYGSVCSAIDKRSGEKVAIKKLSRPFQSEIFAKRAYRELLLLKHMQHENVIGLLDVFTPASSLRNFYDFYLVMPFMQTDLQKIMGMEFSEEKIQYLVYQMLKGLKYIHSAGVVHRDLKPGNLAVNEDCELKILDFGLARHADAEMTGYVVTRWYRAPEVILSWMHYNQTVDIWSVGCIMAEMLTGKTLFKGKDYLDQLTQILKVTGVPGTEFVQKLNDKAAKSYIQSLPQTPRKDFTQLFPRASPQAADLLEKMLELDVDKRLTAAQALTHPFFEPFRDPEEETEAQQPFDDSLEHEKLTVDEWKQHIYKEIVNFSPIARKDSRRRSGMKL

inhibition (PASK (human); compound 0.01 µM): 1.5% | inhibition (PASK (human); compound 0.1 µM): 18.4% | inhibition (MARK2 (human); compound 0.01 µM): -2.5% | inhibition (MARK2 (human); compound 0.1 µM): -1.4% | inhibition (PRKD1 (human); compound 0.01 µM): -2.4% | inhibition (PRKD1 (human); compound 0.1 µM): 11.3% | inhibition (LYN (human); compound 0.01 µM): 9.1% | inhibition (LYN (human); compound 0.1 µM): 3.6% | inhibition (MAPK13 (human); compound 0.01 µM): -5.2% | inhibition (MAPK13 (human); compound 0.1 µM): -3% | inhibition (MAPK12 (human); compound 0.01 µM): 2% | inhibition (MAPK12 (human); compound 0.1 µM): 5.1% | inhibition (FGFR1 (human); compound 0.01 µM): 6.8% | inhibition (FGFR1 (human); compound 0.1 µM): 2.8% | inhibition ([1]; compound 0.01 µM): 1.8% | inhibition ([1]; compound 0.1 µM): -0.4% | inhibition (CSNK1G3 (human); compound 0.01 µM): 0.7% | inhibition (CSNK1G3 (human); compound 0.1 µM): -0.7% | inhibition (GSK3B (human); compound 0.01 µM): 4.9% | inhibition (GSK3B (human); compound 0.1 µM): 1.3% | inhibition (SGK2 (human); compound 0.01 µM): -1.3% | inhibition (SGK2 (human); compound 0.1 µM): -0.1% | inhibition (DYRK1A (human); compound 0.01 µM): -1% | inhibition (DYRK1A (human); compound 0.1 µM): 6.4% | inhibition (PRKCD (human); compound 0.01 µM): -8.7% | inhibition (PRKCD (human); compound 0.1 µM): 8.3% | inhibition ([2]; compound 0.01 µM): -3% | inhibition ([2]; compound 0.1 µM): 6.8% | inhibition (ABL2 (human); compound 0.01 µM): -2.4% | inhibition (ABL2 (human); compound 0.1 µM): -4.3% | inhibition (PRKCG (human); compound 0.01 µM): 2.4% | inhibition (PRKCG (human); compound 0.1 µM): 2.1% | inhibition (TSSK2 (human); compound 0.01 µM): 2.5% | inhibition (TSSK2 (human); compound 0.1 µM): 0.7% | inhibition (PRKCA (human); compound 0.01 µM): -5.5% | inhibition (PRKCA (human); compound 0.1 µM): 5.2% | inhibition (FGFR3 (human); compound 0.01 µM): -4% | inhibition (FGFR3 (human); compound 0.1 µM): 7.8% | inhibition (ROCK1 (human); compound 0.01 µM): 3.1% | inhibition (ROCK1 (human); compound 0.1 µM): 4% | inhibition (IGF1R (human); compound 0.01 µM): 3.9% | inhibition (IGF1R (human); compound 0.1 µM): -7.9% | inhibition (CDK5 CDK5R1 p25 (human); compound 0.01 µM): 8.4% | inhibition (CDK5 CDK5R1 p25 (human); compound 0.1 µM): -2% | inhibition (MAPKAPK3 (human); compound 0.01 µM): -8% | inhibition (MAPKAPK3 (human); compound 0.1 µM): 4.1% | inhibition (TXK (human); compound 0.01 µM): -5.5% | inhibition (TXK (human); compound 0.1 µM): 4.8% | inhibition (LCK (human); compound 0.01 µM): 8.2% | inhibition (LCK (human); compound 0.1 µM): 7.3% | inhibition ([3]; compound 0.01 µM): -3.9% | inhibition ([3]; compound 0.1 µM): 12.4% | inhibition ([4]; compound 0.01 µM): 1.3% | inhibition ([4]; compound 0.1 µM): -4.9% | inhibition (CLK2 (human); compound 0.01 µM): -6.3% | inhibition (CLK2 (human); compound 0.1 µM): -5.2% | inhibition (TSSK1B (human); compound 0.01 µM): -3.1% | inhibition (TSSK1B (human); compound 0.1 µM): 1.9% | inhibition (IKBKB (human); compound 0.01 µM): 3.8% | inhibition (IKBKB (human); compound 0.1 µM): -0.4% | inhibition (PRKD3 (human); compound 0.01 µM): -2.4% | inhibition (PRKD3 (human); compound 0.1 µM): 10.4% | inhibition (PAK2 (human); compound 0.01 µM): 4.4% | inhibition (PAK2 (human); compound 0.1 µM): 4.9% | inhibition (CDK2 (human); compound 0.01 µM): -2.1% | inhibition (CDK2 (human); compound 0.1 µM): 11.7% | inhibition (PHKG2 (human); compound 0.01 µM): 3.4% | inhibition (PHKG2 (human); compound 0.1 µM): 13.3%
Compound: Cn1cc(-c2cnc3ccc4ccc(CS(=O)(=O)NC5CCCCC5)cc4c(=O)c3c2)cn1

From the kinase profiling compilation of Christmann-Franck et al. (2016)
